{"source": "patent US20210086176A1", "about": "“Analyte Detection method” (The Board of Trustees of the Leland Stanford Junior …, priority 2017, published 2021)", "key": {"[1]": {"settings": "inhalation; cited from earlier work"}, "[2]": {"settings": "in vivo; cited from earlier work"}, "[3]": {"settings": "mouse, in vivo, po, 10 mg/kg"}}}
{"smiles": "CC#N", "note": "[acetonitrile]", "values": [{"measurement": "acetonitrile in inhaled air that can induce toxic effects", "setting": "[1]", "value": 100, "unit": "ppm"}]}
{"smiles": "CCC(=O)C(CC(C)N(C)C)(c1ccccc1)c1ccccc1", "note": "(stereo not drawn) [methadone]", "values": [{"measurement": "minimally effective plasma analgesic concentration (MEAC)", "setting": "[2]", "value": 60, "unit": "ng/mL"}]}
{"smiles": "Cc1nccn1CC1CCc2c(c3ccccc3n2C)C1=O", "note": "(stereo not drawn) [ondansetron]", "values": [{"measurement": "slope of trend line, plasma (y) versus whole blood (x) ondansetron concentration", "setting": "[3]", "value": 0.973}]}
